Measurements reported in US11434205B2, “Substituted imidazole carboxylate derivatives and the use thereof” (priority 2018, dated 2022).

Columns and labels:
rats [1] = system: rats
Protocol: (§1) Adult male Sprague-Dawley rats (250-300 g) were selected for the experiment. […] The anesthesia effects of the compounds were assessed in rats using a LORR assay and a period >30 s was considered as an indicator of general anesthesia. Then the up and down method was used to determine 50% effective dose (ED50). The drugs were administered through the tail vein of rats in a volume of 0.6 mL and at a rate of 0.1 mL/s.

rats [2] = assay: Pharmacological characteristics at equivalent doses (2×ED50) in rats; conditions: 2×ED50, tail vein; for Adverse reactions: Red urine (incidence): DMSO solution (DMSO alone 10/10); for Adverse reactions: Tremor (incidence): animals affected/animals; for Onset time: time of LORR
Protocol: Comparison of Pharmacological Characteristics of the Compounds at Equivalent Doses (2×ED50) in Rats
Adult male Sprague-Dawley rats (250-300 g) were selected for the experiment (n=8). […] The drugs were administered at a dose twice their ED50 through the tail vein of rats in a volume of 0.6 mL and at a rate of 0.1 mL/s. In addition, the time of LORR was recorded as the onset time of anesthesia. […] Furthermore, the duration of the pharmacological effects is sufficient to meet the time requirements for rapid induction of general anesthesia and for diagnostic examinations, some short invasive clinical examinations, or operations.

rats [3] = assay: Loss of righting reflexes (LORR) assay in rats, ED50 by up and down method; format: in vivo, rat; conditions: tail vein, class symbols; for ED50: Rattus norvegicus
Protocol: The Anesthetic Activity of the Compounds was Assessed in Rats Using a Loss of Righting Reflexes (LORR) Assay
as §1

| Compound | Approximate therapeutic index (rats [1]) | Minimal lethal dose (rats [1]) [mg/kg] | Righting reflex duration (rats [2]) [min] | Adverse reactions: Red urine (incidence) (rats [2]) | Adverse reactions: Tremor (incidence) (rats [2]) | Onset time (rats [2]) [min] | ED50 (rats [3]) [mg/kg] | Adverse reactions: Myoclonus (incidence) (rats [2]) | Adverse reactions: Tongue stretching (incidence) (rats [2]) | Sedation duration (mg/kg) (rats [2]) | ED50 (mg/kg) (rats [3]) |
| --- | --- | --- | --- | --- | --- | --- | --- | --- | --- | --- | --- |
| C[C@H](c1ccccc1)n1cncc1C(=O)OC1(CC2CO2)COC1 (some centres unmarked) [Compound B22] | >10 | >17 | 1.24 ± 0.12 | 8/8 | 4/8 | 0.92 ± 0.14 | 0.5 to 1 | – | – | – | – |
| C[C@H](c1ccccc1)n1cncc1C(=O)OC1(C)COC1 [Compound B28] | >13 | >10 | 3.32 ± 0.72 | Red urine (8/8) | – | 0.29 ± 0.15 | 0.1 to 0.5 | – | – | – | – |
| C=CCC1(OC(=O)c2cncn2[C@H](C)c2ccccc2)CCC1 [Compound D12] | >14 | >10 | 2.15 ± 1.03 | Red urine (8/8) | – | 0.32 ± 0.09 | 0.5 to 1 | – | – | – | – |
| [2H]C#CC(C)(C)OC(=O)c1cncn1[C@H](C)c1ccccc1 [Compound D16] | >12 | >6 | 1.17 ± 0.98 | Red urine (8/8) | – | 0.36 ± 0.19 | 0.5 to 1 | – | – | – | – |
| C=CC(CC)(CC)OC(=O)c1cncn1[C@H](C)c1ccccc1 [Compound D24] | >13 | >7 | 0.80 ± 0.20 | Red urine (8/8) | – | 0.56 ± 0.31 | 0.5 to 1 | – | – | – | – |
| C=C(C)CC1(OC(=O)c2cncn2[C@H](C)c2ccccc2)CCC1 [Compound D26] | >10 | >4 | 1.36 ± 0.52 | urine (8/8) | – | 0.56 ± 0.19 | 0.1 to 0.5 | Myoclonus (3/8), Red | – | – | – |
| C#CC1(OC(=O)c2cncn2[C@H](C)c2ccccc2)CSC1 [Compound D27] | >10 | >10 | 2.15 ± 1.03 | Red urine (8/8) | – | 0.32 ± 0.09 | 0.5 to 1 | – | – | – | – |
| CC#CC1(OC(=O)c2cncn2[C@H](C)c2ccccc2)CSC1 [Compound D29] | >13 | >10 | 1.19 ± 0.64 | (8/8) | Tremor (3/8), Red urine | 0.73 ± 0.10 | 0.5 to 1 | – | – | – | – |
| CC#CC1(OC(=O)c2cncn2[C@H](C)c2ccccc2)CCSC1 (some centres unmarked) [Compound D30] | >11 | >5 | 1.32 ± 0.61 | urine (8/8) | – | 0.43 ± 0.22 | 0.5 to 1 | Myoclonus (2/8), Red | – | – | – |
| CC#CC(C)(C)OC(=O)c1cncn1[C@H](C)c1ccccc1 [Compound D31] | >13 | >9 | 2.65 ± 1.10 | Red urine (8/8) | – | 0.41 ± 0.15 | 0.5 to 1 | – | – | – | – |
| CC#CC(C)OC(=O)c1cncn1[C@H](C)c1ccccc1 (some centres unmarked) [Compound D32] | >16 | >5 | 2.14 ± 1.23 | Red urine (8/8) | – | 0.49 ± 0.23 | 0.1 to 0.5 | – | Tongue stretching (2/8), | – | – |
| C=C=CC1(SC(=O)c2cncn2[C@H](C)c2ccccc2)COC1 [Compound D33] | >10 | >8 | 0.92 ± 0.33 | Red urine (8/8) | – | 0.71 ± 0.22 | 0.5 to 1 | – | – | – | – |
| C=CC#CC(C)OC(=O)c1cncn1[C@H](C)c1ccccc1 (some centres unmarked) [Compound D59] | >11 | >13 | 5.83 ± 1.06 | Red urine (8/8) | – | 0.15 ± 0.02 | 0.1 to 0.5 | – | – | – | – |
| C#CC1(OC(=O)c2c(F)ncn2[C@H](C)c2ccccc2)COC1 [Compound E4] | >20 | >10 | 4.38 ± 1.29 | (8/8) | – | 0.45 ± 0.05 | – | – | – | 10.65 ± 1.31 | B (B means that the measured ED50 is in the range of 0.10-0.50 mg/kg (excluding 0.10 mg/kg, including 0.50 mg/kg).) |
| C[C@H](c1ccccc1)n1cnc(F)c1C(=O)OC1CC1 [Compound E34] | >12 | >2 | 1.78 ± 1.09 | (8/8) | – | 0.29 ± 0.20 | 0.1 to 0.5 | – | (1/8), | – | – |
| C=C=CC1(OC(=O)c2c(F)ncn2[C@H](C)c2ccccc2)CCCCC1 [Compound E36] | >26 | >5 | 2.21 ± 1.86 | (8/8) | – | 0.49 ± 0.17 | 0.5 to 1 | – | – | – | – |
| C=C=CC(CC)OC(=O)c1c(F)ncn1[C@H](C)c1ccccc1 (some centres unmarked) [Compound E77] | >12 | >10 | 1.90 ± 0.74 | urine (8/8) | (2/8), Red | 0.11 ± 0.03 | 0.5 to 1 | – | – | – | – |
